Measurements: US8288424B2, “Substituted tetrahydroimidazopyridine compounds and the use thereof in the treatment of pain and other conditions” (Gruenenthal GmbH, priority 2008, dated 2012)

Biological target: T1, KCNQ2/3 channels (Homo sapiens, UniProt O43525+O43526)
T1 construct: expressed in transfected cells; host or cells: CHO-K1
Assay: Fluorescence assay using a voltage-sensitive dye
Assay type: cell-based
Conditions: CHO-K1 cells expressing KCNQ2/3 channels, agonistic activity; for activation at 10 µM: 10 μmol test substance, read-out: % Stimulation [10 μmol] Average
Description: Fluorescence Assay Using a Voltage-Sensitive Dye
Human CHO-K1 cells expressing KCNQ2/3 channels are cultivated adherently at 37° C., 5% CO2 and 95% humidity in cell culture bottles (e.g. 80 cm^2 TC flasks, Nunc) with MEM Alpha Medium (1×, liquid, Invitrogen, #22571), 10% foetal calf serum (FCS) (Invitrogen, #10270-106, heat-inactivated) and the necessary selection antibiotics. Before being spread out for the measurements, the cells are washed with a 1×DPBS buffer without Ca^2+/Mg^2+ (e.g. Invitrogen, #14190-094) and detached from the bottom of the culture vessel by means of Accutase (PAA Laboratories, #L11-007) (incubation with Accutase for 15 min at 37° C.). The cell count then present is determined using a CASY™ cell counter (TCC model, Schärfe System) in order subsequently to apply 20,000 cells/well/100 μl of the described nutrient medium to 96-well measuring plates of the Corning™ CellBIND™ type (flat clear-bottom black polystyrene microplates, #3340). Incubation is then carried out for one hour at room temperature, without gassing or adjusting the humidity, followed by incubation for 24 hours at 37° C., 5% CO2 and 95% humidity.
The voltage-sensitive fluorescent dye from the Membrane Potential Assay Kit (Red bulk format part R8123 for FLIPR, Molecular Devices™) is prepared by dissolving the contents of a vessel of Membrane Potential Assay Kit Red Component A in 200 ml of extracellular buffer (ES buffer, 120 mM NaCl, 1 mM KCl, 10 mM HEPES, 2 mM CaCl2, 2 mM MgCl2, 10 mM glucose; pH 7.4). After removal of the nutrient medium, the cells are washed with 200 μl of ES buffer, then covered with a layer of 100 μl of the dye solution prepared above and incubated for 45 min at room temperature with exclusion of light.
The fluorescence measurements are carried out with a BMG Labtech FLUOstar™ or BMG Labtech POLARstar™ instrument (525 nm excitation, 560 nm emission, bottom-read mode). After incubation of the dye, 50 μl of the substances to be tested in the desired concentrations, or 50 μl of ES buffer for control purposes, are introduced into separate cavities of the measuring plate and incubated for 30 min at room temperature whilst being shielded from light. The fluorescence intensity of the dye is then measured for 5 min and the fluorescence value F1 of each well is thus determined at a given, constant time. 15 μl of a […] KCl solution ([…]) are then added to each well. The change in fluorescence is subsequently measured until all relevant measured values have been obtained (mainly 5-30 min). At a given time after KCl application, a fluorescence value F2 is determined, in this case at the time of the fluorescence peak.
For calculation, the fluorescence intensity F2 is compared with the fluorescence intensity F1, and the agonistic activity of the target compound on the potassium channel is determined therefrom. F2 and F1 are calculated as follows:
[formula] In order to determine whether a substance has an agonistic activity,
[formula] for example, can be compared with
[formula] of control cells.
[formula] is determined by adding to the reaction batch only the buffer solution instead of the substance to be tested, determining the value F1K of the fluorescence intensity, adding the potassium ions as described above and measuring a value F2K of the fluorescence intensity. Then F2K and F1K are calculated as follows:
[formula] A substance has an agonistic activity on the potassium channel when
[formula] is greater than
[formula] Independently of the comparison of
[formula] it is also possible to conclude that a target compound has an agonistic activity if an increase in
[formula] is to be observed as the dosage of the target compound increases. Calculations of EC50 and IC50 values are carried out with the aid of Prism 4 software (GraphPad Software™).

SMILES	activation at 10 µM [%]	EC50 [µM]
O=C(c1cn2c(n1)CCC(c1cc(F)ccc1F)C2)N1CCCC1 (stereo not shown) [Compound 36, (6-(2,5-Difluorophenyl)-5,6,7,8-tetrahydroimidazo[1,2-a]pyridin-2-yl)(pyrrolidin-1-yl)methanone]	21.7	
CC(=O)N1CCN(C(=O)c2cn3c(n2)CCC(c2ccc(Oc4ccccc4)cc2)C3)CC1 (stereo not shown) [Compound 23, 1-(4-(6-(4-Phenoxyphenyl)-5,6,7,8-tetrahydroimidazo[1,2-a]pyridine-2-carbonyl)piperazin-1-yl)ethanone]		5.81
COc1c(C)cc(C2CCc3nc(C(=O)N4CCN(c5ccccc5F)CC4)cn3C2)cc1C (stereo not shown) [Compound 6, (4-(2-Fluorophenyl)piperazin-1-yl)(6-(4-methoxy-3,5-dimethylphenyl)-5,6,7,8-tetrahydroimidazo[1,2-a]pyridin-2-yl)methanone]		7.4
O=C(NCc1ccccc1)c1cn2c(n1)CCC(c1cc(C(F)(F)F)cc(C(F)(F)F)c1)C2 (stereo not shown) [Compound 43, N-Benzyl-6-(3,5-bis(trifluoromethyl)phenyl)-5,6,7,8-tetrahydroimidazo[1,2-a]pyridine-2-carboxamide]	16.3	
Cc1cc(C2CCc3nc(C(=O)NC(C)c4ccccc4)cn3C2)ccc1F (stereo not shown) [Compound 14, 6-(4-Fluoro-3-methylphenyl)-N-(1-phenylethyl)-5,6,7,8-tetrahydroimidazo[1,2-a]pyridine-2-carboxamide]	24.7	
COc1ccc(CCNC(=O)c2cn3c(n2)CCC(c2ccc(Oc4ccccc4)cc2)C3)cc1OC (stereo not shown) [Compound 27, N-(3,4-Dimethoxyphenethyl)-6-(4-phenoxyphenyl)-5,6,7,8-tetrahydroimidazo[1,2-a]pyridine-2-carboxamide]		6.35
O=C(NC1CC1)c1cn2c(n1)CCC(c1ccc(Oc3ccccc3)cc1)C2 (stereo not shown) [Compound 26, N-Cyclopropyl-6-(4-phenoxyphenyl)-5,6,7,8-tetrahydroimidazo[1,2-a]pyridine-2-carboxamide]	17.4	
COc1ccc(N2CCN(C(=O)c3cn4c(n3)CCC(c3cc(C)c(OC)c(C)c3)C4)CC2)cc1 (stereo not shown) [Compound 44, (6-(4-Methoxy-3,5-dimethylphenyl)-5,6,7,8-tetrahydroimidazo[1,2-a]pyridin-2-yl)(4-(4-methoxyphenyl)piperazin-1-yl)methanone]	27.5	
CCCCCCNC(=O)c1cn2c(n1)CCC(c1cc(C)c(OC)c(C)c1)C2 (stereo not shown) [Compound 16, N-Hexyl-6-(4-methoxy-3,5-dimethylphenyl)-5,6,7,8-tetrahydroimidazo[1,2-a]pyridine-2-carboxamide]		3.95
COc1c(C)cc(C2CCc3nc(C(=O)NCc4ccc(F)cc4)cn3C2)cc1C (stereo not shown) [Compound 49, N-(4-Fluorobenzyl)-6-(4-methoxy-3,5-dimethylphenyl)-5,6,7,8-tetrahydroimidazo-[1,2-a]pyridine-2-carboxamide]	15.1	
COc1ccccc1N1CCN(C(=O)c2cn3c(n2)CCC(c2cc(C)c(OC)c(C)c2)C3)CC1 (stereo not shown) [Compound 10, (6-(4-Methoxy-3,5-dimethylphenyl)-5,6,7,8-tetrahydroimidazo[1,2-a]pyridin-2-yl)(4-(2-methoxyphenyl)piperazin-1-yl)methanone]	15.7	
CCCCCNC(=O)c1cn2c(n1)CCC(c1cc(C)c(OC)c(C)c1)C2 (stereo not shown) [Compound 15, 6-(4-Methoxy-3,5-dimethylphenyl)-N-pentyl-5,6,7,8-tetrahydroimidazo[1,2-a]pyridine-2-carboxamide]	16.8	
CCCCCNC(=O)c1cn2c(n1)CCC(c1ccc(Oc3ccccc3)cc1)C2 (stereo not shown) [Compound 28, N-Pentyl-6-(4-phenoxyphenyl)-5,6,7,8-tetrahydroimidazo[1,2-a]pyridine-2-carboxamide]		9.38
O=C(c1cn2c(n1)CCC(c1ccccc1)C2)N(CCc1ccccc1)Cc1ccccc1 (stereo not shown) [Compound 2, N-Benzyl-N-phenethyl-6-phenyl-5,6,7,8-tetrahydroimidazo[1,2-a]pyridine-2-carboxamide]	20	

The remaining lines, values ahead:

activation at 10 µM [%]	EC50 [µM]	SMILES
30.1		COc1ccc(C2CCc3nc(C(=O)N4CCN(c5cccc(C(F)(F)F)c5)CC4)cn3C2)cc1 (stereo not shown) [Compound 69, (6-(4-Methoxyphenyl)-5,6,7,8-tetrahydroimidazo[1,2-a]pyridin-2-yl)(4-(3-(trifluoromethyl)phenyl)piperazin-1-yl)methanone]
82.2		O=C(c1cn2c(n1)CCC(c1cccc(F)c1)C2)N1CCC(Cc2ccccc2)CC1 (stereo not shown) [Compound 61, (4-Benzylpiperidin-1-yl)(6-(3-fluorophenyl)-5,6,7,8-tetrahydroimidazo[1,2-a]pyridin-2-yl)methanone]
96.7		Cc1cc(C2CCc3nc(C(=O)N4CCN(c5ccc(F)cc5)CC4)cn3C2)ccc1F (stereo not shown) [Compound 63, (6-(4-Fluoro-3-methylphenyl)-5,6,7,8-tetrahydroimidazo[1,2-a]pyridin-2-yl)(4-(4-fluorophenyl)piperazin-1-yl)methanone]
	6.5	Cc1cc(C2CCc3nc(C(=O)N4CCN(c5cccc(F)c5)CC4)cn3C2)ccc1F (stereo not shown) [Compound 83, (6-(4-Fluoro-3-methylphenyl)-5,6,7,8-tetrahydroimidazo[1,2-a]pyridin-2-yl)(4-(3-fluorophenyl)piperazin-1-yl)methanone]
115		COc1cccc(C2CCc3nc(C(=O)N4CCN(c5cccc(C(F)(F)F)c5)CC4)cn3C2)c1 (stereo not shown) [Compound 71, (6-(3-Methoxyphenyl)-5,6,7,8-tetrahydroimidazo[1,2-a]pyridin-2-yl)(4-(3-(trifluoromethyl)phenyl)piperazin-1-yl)methanone]
123		Cc1cccc(C2CCc3nc(C(=O)N4CCC(Cc5ccccc5)CC4)cn3C2)c1 (stereo not shown) [Compound 70, (4-Benzylpiperidin-1-yl)(6-m-tolyl-5,6,7,8-tetrahydroimidazo[1,2-a]pyridin-2-yl)methanone]
51.9		Cc1ccc(C2CCc3nc(C(=O)N4CCN(c5cccc(C(F)(F)F)c5)CC4)cn3C2)cc1 (stereo not shown) [Compound 74, (6-p-Tolyl-5,6,7,8-tetrahydroimidazo[1,2-a]pyridin-2-yl)(4-(3-(trifluoromethyl)phenyl)piperazin-1-yl)methanone]
	9.71	Cc1cc(C2CCc3nc(C(=O)N4CCC(Cc5ccccc5)CC4)cn3C2)ccc1F (stereo not shown) [Compound 57, (4-Benzylpiperidin-1-yl)(6-(4-fluoro-3-methylphenyl)-5,6,7,8-tetrahydroimidazo[1,2-a]pyridin-2-yl)methanone]
	6.4	COc1cccc(C2CCc3nc(C(=O)NC(C)CCc4ccccc4)cn3C2)c1 (stereo not shown) [Compound 60, 6-(3-Methoxyphenyl)-N-(4-phenylbutan-2-yl)-5,6,7,8-tetrahydroimidazo[1,2-a]pyridine-2-carboxamide]
	11.3	COc1c(C)cc(C2CCc3nc(C(=O)N4CC5(C)CC4CC(C)(C)C5)cn3C2)cc1C (stereo not shown) [Compound 56, (6-(4-Methoxy-3,5-dimethylphenyl)-5,6,7,8-tetrahydroimidazo[1,2-a]pyridin-2-yl)(1,3,3-trimethyl-6-azabicyclo[3.2.1]octan-6-yl)methanone]
46.7		Cc1ccc(N2CCN(C(=O)c3cn4c(n3)CCC(c3ccc(F)c(C)c3)C4)CC2)cc1 (stereo not shown) [Compound 64, (6-(4-Fluoro-3-methylphenyl)-5,6,7,8-tetrahydroimidazo[1,2-a]pyridin-2-yl)(4-(4-methylphenyl)piperazin-1-yl)methanone]
